In PubChem BioAssay (NCI):
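96-well plates; 48 h exposure; 5 concentrations. Endpoints by linear interpolation between flanking doses. Not reached: highest tested concentration assigned. GI50: concentration for 50% inhibition of growth. Definition used: TGI = concentration required for complete inhibition of growth.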

Assays:
Experiment in all cases: DTP human tumour cell line panel, 48 h
COLO 205 colon = test system: COLO 205 colon
SNB-75 CNS = test system: SNB-75 CNS
MDA-MB-435 = test system: MDA-MB-435
DU-145 prostate = test system: DU-145 prostate
MOLT-4 leukemia = test system: MOLT-4 leukemia
NCI/ADR-RES ovarian = test system: NCI/ADR-RES ovarian
HCT-116 colon = test system: HCT-116 colon
T-47D breast = test system: T-47D breast
KM12 colon = test system: KM12 colon
SK-MEL-5 melanoma = test system: SK-MEL-5 melanoma
RPMI-8226 leukemia = test system: RPMI-8226 leukemia
HL-60(TB) leukemia = test system: HL-60(TB) leukemia
MDA-MB-231 breast = test system: MDA-MB-231 breast
UACC-257 melanoma = test system: UACC-257 melanoma
NCI-H226 lung = test system: NCI-H226 lung
LOX IMVI melanoma = test system: LOX IMVI melanoma
SK-MEL-2 melanoma = test system: SK-MEL-2 melanoma
SR leukemia = test system: SR leukemia
OVCAR-8 ovarian = test system: OVCAR-8 ovarian
SF-295 CNS = test system: SF-295 CNS
UO-31 renal = test system: UO-31 renal
SF-539 CNS = test system: SF-539 CNS
786-0 renal = test system: 786-0 renal
PC-3 prostate = test system: PC-3 prostate
HT29 colon = test system: HT29 colon
HCC-2998 colon = test system: HCC-2998 colon
MDA-MB-468 breast = test system: MDA-MB-468 breast
SK-OV-3 ovarian = test system: SK-OV-3 ovarian
K-562 leukemia = test system: K-562 leukemia
IGROV1 ovarian = test system: IGROV1 ovarian
NCI-H23 lung = test system: NCI-H23 lung
SN12C renal = test system: SN12C renal
TK-10 renal = test system: TK-10 renal
OVCAR-3 ovarian = test system: OVCAR-3 ovarian
CAKI-1 renal = test system: CAKI-1 renal
U251 CNS = test system: U251 CNS
EKVX NSCLC = test system: EKVX NSCLC
M14 melanoma = test system: M14 melanoma
HCT-15 colon = test system: HCT-15 colon
MALME-3M melanoma = test system: MALME-3M melanoma
MCF7 breast = test system: MCF7 breast
SF-268 CNS = test system: SF-268 CNS
A498 renal = test system: A498 renal
NCI-H460 lung = test system: NCI-H460 lung
HOP-62 NSCLC = test system: HOP-62 NSCLC
UACC-62 melanoma = test system: UACC-62 melanoma
HOP-92 NSCLC = test system: HOP-92 NSCLC
HS 578T breast = test system: HS 578T breast
OVCAR-5 ovarian = test system: OVCAR-5 ovarian
NCI-H522 lung = test system: NCI-H522 lung
SK-MEL-28 melanoma = test system: SK-MEL-28 melanoma
SNB-19 CNS = test system: SNB-19 CNS
SW-620 colon = test system: SW-620 colon
OVCAR-4 ovarian = test system: OVCAR-4 ovarian
CCRF-CEM leukemia = test system: CCRF-CEM leukemia
RXF 393 renal = test system: RXF 393 renal
ACHN renal = test system: ACHN renal
A549 NSCLC = test system: A549 NSCLC
BT-549 breast = test system: BT-549 breast

Work on `COc1ccc(-c2nc(S(=O)(=O)c3ccccc3)c(S(C)(=O)=O)o2)cc1` yielded a GI50 (COLO 205 colon) of 2.22 µM, a TGI (COLO 205 colon) of 4.9 µM and a GI50 (SNB-75 CNS) of 11.3 µM. For the same compound, the TGI (SNB-75 CNS) was 23.7 µM, the GI50 (MDA-MB-435) was 8.96 µM and the TGI (MDA-MB-435) was 21.8 µM. It also gave a GI50 (DU-145 prostate) of 6.26 µM, a TGI (DU-145 prostate) of 20.4 µM and a GI50 (MOLT-4 leukemia) of 3.39 µM. The TGI (MOLT-4 leukemia) was 13.2 µM, the GI50 (NCI/ADR-RES ovarian) was 17 µM and the TGI (NCI/ADR-RES ovarian) was 48 µM. For the same compound, the GI50 (HCT-116 colon) was 1.99 µM, the TGI (HCT-116 colon) was 4.58 µM and the GI50 (T-47D breast) was 2.16 µM. It also gave a TGI (T-47D breast) of 5.03 µM, a GI50 (KM12 colon) of 17.6 µM and a TGI (KM12 colon) of 35.7 µM. It also gave a GI50 (SK-MEL-5 melanoma) of 15.2 µM, a TGI (SK-MEL-5 melanoma) of 29.1 µM and a GI50 (RPMI-8226 leukemia) of 3.97 µM. The TGI (RPMI-8226 leukemia) was greater than 100 µM, the GI50 (HL-60(TB) leukemia) was 2.38 µM and the TGI (HL-60(TB) leukemia) was 20.9 µM. It also gave a GI50 (MDA-MB-231 breast) of 3.52 µM, a TGI (MDA-MB-231 breast) of 12.2 µM and a GI50 (UACC-257 melanoma) of 13 µM. For the same compound, the TGI (UACC-257 melanoma) was 28 µM, the GI50 (NCI-H226 lung) was 18.2 µM and the TGI (NCI-H226 lung) was 40.9 µM. For the same compound, the GI50 (LOX IMVI melanoma) was 1.54 µM, the TGI (LOX IMVI melanoma) was 2.92 µM and the GI50 (SK-MEL-2 melanoma) was 14.2 µM. The TGI (SK-MEL-2 melanoma) was 28 µM, the GI50 (SR leukemia) was 2.66 µM and the TGI (SR leukemia) was 25.6 µM. The GI50 (OVCAR-8 ovarian) was 13.6 µM, the TGI (OVCAR-8 ovarian) was 32.1 µM and the GI50 (SF-295 CNS) was 15.7 µM. The TGI (SF-295 CNS) was 29.6 µM, the GI50 (UO-31 renal) was 5.43 µM and the TGI (UO-31 renal) was 18.3 µM. For the same compound, the GI50 (SF-539 CNS) was 3.93 µM, the TGI (SF-539 CNS) was 14.6 µM and the GI50 (786-0 renal) was 2.08 µM. It also gave a TGI (786-0 renal) of 4.98 µM, a GI50 (PC-3 prostate) of 14.1 µM and a TGI (PC-3 prostate) of 30 µM. It also gave a GI50 (HT29 colon) of 3.15 µM, a TGI (HT29 colon) of 9.31 µM and a GI50 (HCC-2998 colon) of 15 µM. For the same compound, the TGI (HCC-2998 colon) was 29 µM, the GI50 (MDA-MB-468 breast) was 2.24 µM and the TGI (MDA-MB-468 breast) was 4.41 µM. It also gave a GI50 (SK-OV-3 ovarian) of 21.7 µM, a TGI (SK-OV-3 ovarian) of 44.9 µM and a GI50 (K-562 leukemia) of 2.77 µM. It also gave a TGI (K-562 leukemia) greater than 100 µM, a GI50 (IGROV1 ovarian) of 13.1 µM and a TGI (IGROV1 ovarian) of 27.2 µM. It also gave a GI50 (NCI-H23 lung) of 12 µM, a TGI (NCI-H23 lung) of 27.2 µM and a GI50 (SN12C renal) of 11.4 µM. The TGI (SN12C renal) was 23.5 µM, the GI50 (TK-10 renal) was 7.5 µM and the TGI (TK-10 renal) was 21 µM. For the same compound, the GI50 (OVCAR-3 ovarian) was 1.74 µM, the TGI (OVCAR-3 ovarian) was 3.33 µM and the GI50 (CAKI-1 renal) was 2.59 µM. The TGI (CAKI-1 renal) was 10.9 µM, the GI50 (U251 CNS) was 17.7 µM and the TGI (U251 CNS) was 34.3 µM. It also gave a GI50 (EKVX NSCLC) of 12.2 µM, a TGI (EKVX NSCLC) of 26.6 µM and a GI50 (M14 melanoma) of 3.26 µM. For the same compound, the TGI (M14 melanoma) was 14.3 µM, the GI50 (HCT-15 colon) was 2.04 µM and the TGI (HCT-15 colon) was 4.62 µM. It also gave a GI50 (MALME-3M melanoma) of 1.67 µM, a TGI (MALME-3M melanoma) of 3.1 µM and a GI50 (MCF7 breast) of 2.46 µM. It also gave a TGI (MCF7 breast) of 8.25 µM, a GI50 (SF-268 CNS) of 14.4 µM and a TGI (SF-268 CNS) of 33.9 µM. The GI50 (A498 renal) was 15.5 µM, the TGI (A498 renal) was 29 µM and the GI50 (NCI-H460 lung) was 13.9 µM. It also gave a TGI (NCI-H460 lung) of 29.7 µM, a GI50 (HOP-62 NSCLC) of 18.2 µM and a TGI (HOP-62 NSCLC) of 35.2 µM. For the same compound, the GI50 (UACC-62 melanoma) was 11.2 µM, the TGI (UACC-62 melanoma) was 23.2 µM and the GI50 (HOP-92 NSCLC) was 7.29 µM. It also gave a TGI (HOP-92 NSCLC) of 20.8 µM, a GI50 (HS 578T breast) of 12.8 µM and a TGI (HS 578T breast) of 48.4 µM. It also gave a GI50 (OVCAR-5 ovarian) of 14.4 µM, a TGI (OVCAR-5 ovarian) of 27.9 µM and a GI50 (NCI-H522 lung) of 1.65 µM. It also gave a TGI (NCI-H522 lung) of 3.32 µM, a GI50 (SK-MEL-28 melanoma) of 12.5 µM and a TGI (SK-MEL-28 melanoma) of 25.2 µM. It also gave a GI50 (SNB-19 CNS) of 16.5 µM, a TGI (SNB-19 CNS) of 31.8 µM and a GI50 (SW-620 colon) of 1.67 µM. The TGI (SW-620 colon) was 3.39 µM, the GI50 (OVCAR-4 ovarian) was 3.44 µM and the TGI (OVCAR-4 ovarian) was 15.4 µM. For the same compound, the GI50 (CCRF-CEM leukemia) was 2.07 µM, the TGI (CCRF-CEM leukemia) was 6.22 µM and the GI50 (RXF 393 renal) was 2.07 µM. It also gave a TGI (RXF 393 renal) of 4.09 µM, a GI50 (ACHN renal) of 1.7 µM and a TGI (ACHN renal) of 3.13 µM. The GI50 (A549 NSCLC) was 19.1 µM, the TGI (A549 NSCLC) was 42.1 µM and the GI50 (BT-549 breast) was 10.1 µM. For the same compound, the TGI (BT-549 breast) was 22.6 µM.
